{"source": "patent US6040300A", "about": "“Method of preventing colon cancer with vitamin D3 analogues” (Arch Development Corporation, priority 1995, dated 2000)", "origin": "cited, not measured here", "key": {"[1]": {"tested_on": "MHC class I and II antigens", "details": "colonic tumor formation, AOM model; cited from earlier work"}, "[2]": {"tested_on": "chemically-induced colonic tumors", "details": "in vivo; cited from earlier work"}, "[3]": {"tested_on": "colon carcinogenesis induced by 1,2-dimethylhydrazine (DMH)", "details": "dietary supplementation; high fat diet; cited from earlier work"}, "AOM metabolism": {"tested_on": "AOM metabolism", "details": "cited from earlier work"}, "class II antigens": {"tested_on": "class II antigens", "details": "monocytes and lymphocytes; cited from earlier work"}, "c-myc mRNA": {"tested_on": "c-myc mRNA", "details": "HL-60 cells; cited from earlier work"}, "[4]": {"tested_on": "ornithine decarboxylase (ODC)", "details": "induced by various chemical carcinogens, preneoplastic period; cited from earlier work"}, "suppressor T cell": {"tested_on": "suppressor T cell", "details": "cited from earlier work"}, "[5]": {"tested_on": "malignant cell lines, including several derived from human colon adenocarcinomas", "details": "in vitro; cited from earlier work"}}}
{"smiles": "CN1C(C(=O)Nc2ccccn2)=C(O)c2ccccc2S1(=O)=O", "note": "[piroxicam]", "values": [{"measurement": "chemopreventive effect paralleled by MHC antigen alterations", "setting": "[1]", "result": "paralleled by alterations in the expression of these antigens"}]}
{"smiles": "C=C1/C(=C\\C=C2/CCC[C@]3(C)[C@@H]([C@H](C)CCCC(C)C)CC[C@@H]23)C[C@@H](O)C[C@@H]1O", "note": "[1α(OH)D3, 1α-hydroxyvitamin D3]", "values": [{"measurement": "protection against chemically-induced colonic tumors", "setting": "[2]", "result": "protect against the development of chemically-induced colonic tumors"}]}
{"smiles": "C=C1CC[C@H](O)C/C1=C/C=C1\\CCC[C@]2(C)[C@@H]([C@H](C)CCCC(C)C)CC[C@@H]12", "note": "[vitamin D3, cholecalciferol]", "values": [{"measurement": "inhibition of colon carcinogenesis incidence", "setting": "[3]", "result": "inhibit the incidence of colon carcinogenesis"}]}
{"smiles": "c1cn[nH]c1", "note": "[pyrazole]", "values": [{"measurement": "inhibition of AOM metabolism", "setting": "AOM metabolism", "result": "inhibition of AOM metabolism"}]}
{"smiles": "C[C@H](CCC(=O)O)[C@H]1CC[C@H]2[C@@H]3[C@@H](O)C[C@@H]4C[C@H](O)CC[C@]4(C)[C@H]3CC[C@]12C", "note": "[ursodeoxycholic acid]", "values": [{"measurement": "chemopreventive effect paralleled by MHC antigen alterations", "setting": "[1]", "result": "paralleled by alterations in the expression of these antigens"}]}
{"smiles": "C=C1/C(=C\\C=C2/CCC[C@]3(C)[C@@H]([C@H](C)CCCC(C)(C)O)CC[C@@H]23)C[C@@H](O)C[C@@H]1O", "note": "[1α,25(OH)2 D3, 1α,25-dihydroxyvitamin D3]", "values": [{"measurement": "expression of class II antigens", "setting": "class II antigens", "result": "effect the expression of class II antigens by monocytes and lymphocytes"}, {"measurement": "c-myc mRNA expression", "setting": "c-myc mRNA", "result": "decrease c-myc mRNA expression in HL-60 cells"}, {"measurement": "inhibition of increase in colonic mucosal ODC", "setting": "[4]", "result": "inhibit the increase in colonic mucosal ODC"}, {"measurement": "suppressor T cell activity", "setting": "suppressor T cell", "result": "promote suppressor T cell activity"}, {"measurement": "protection against chemically-induced colonic tumors", "setting": "[2]", "result": "protect against the development of chemically-induced colonic tumors"}, {"measurement": "inhibition of proliferation", "setting": "[5]", "result": "inhibit the proliferation of a number of malignant cell lines in vitro"}]}
